# Biological target: Estrogen receptor (Rattus norvegicus) (UniProt P06211+Q62986)
# Assay: Displacement of [3H]estradiol from rat uterine estrogen receptor
# Assay type: protein assay
row,Compound,RBA
1,Oc1ccc2c(c1)CC(c1ccccc1)=C2c1ccccc1F,12%
2,Cc1ccccc1C1=C(c2ccccc2)Cc2cc(O)ccc21,11%
3,Oc1ccc2c(c1)CC(c1ccccc1F)=C2c1ccccc1,49%
4,Oc1ccc(C2=C(c3ccccc3)Cc3cc(O)ccc32)c(F)c1,9.6%

# The next lines start with the values.
row,RBA,Compound
1,23%,Cc1ccccc1C1=C(c2ccc(O)cc2)c2ccc(O)cc2C1
2,1.7%,Cc1ccc(C2=C(c3ccccc3)Cc3cc(O)ccc32)cc1
3,100%,Cc1ccccc1C1=C(c2ccccc2)c2ccc(O)cc2C1
